Source: ChEMBL document CHEMBL3627604, “Design of novel 3,6-diazabicyclo[3.1.1]heptane derivatives with potent and selective affinities for α4β2 neuronal nicotinic acetylcholine receptors” (Eur J Med Chem, 2015)
Active and inactive are the calls of the source. The calls are words filed in the database; no cut-off is given here.

Legend:
[1] = Binding affinity to alpha4beta2* nAChR in Sprague-Dawley rat cortical membranes after overnight incubation by radioligand liquid scintillation counter analysis
[2] = Displacement of [3H]-Epibatidine from alpha4beta2* nAChR in Sprague-Dawley rat cortical membranes pre-incubated for 5 mins followed by overnight incubation by radioligand liquid scintillation counter analysis
Rattus norvegicus [3] = species on record: Rattus norvegicus; assay: Selectivity ratio of Ki for alpha7 nAChR in Sprague-Dawley rat hippocampal membranes to Ki for alpha4beta2 nAChR in Sprague-Dawley rat cortical membranes
[4] = molecular target: Neuronal acetylcholine receptor subunit alpha-7 (Rattus norvegicus, UniProt Q05941); assay: Displacement of [125I]alpha-Bungarotoxin from alpha7 nAChR in Sprague-Dawley rat hippocampal membranes pre-incubated for 5 mins followed by overnight incubation by radioligand liquid scintillation counter analysis
Neuronal acetylcholine receptor subunit alpha-7, sequence (Q05941 whole entry): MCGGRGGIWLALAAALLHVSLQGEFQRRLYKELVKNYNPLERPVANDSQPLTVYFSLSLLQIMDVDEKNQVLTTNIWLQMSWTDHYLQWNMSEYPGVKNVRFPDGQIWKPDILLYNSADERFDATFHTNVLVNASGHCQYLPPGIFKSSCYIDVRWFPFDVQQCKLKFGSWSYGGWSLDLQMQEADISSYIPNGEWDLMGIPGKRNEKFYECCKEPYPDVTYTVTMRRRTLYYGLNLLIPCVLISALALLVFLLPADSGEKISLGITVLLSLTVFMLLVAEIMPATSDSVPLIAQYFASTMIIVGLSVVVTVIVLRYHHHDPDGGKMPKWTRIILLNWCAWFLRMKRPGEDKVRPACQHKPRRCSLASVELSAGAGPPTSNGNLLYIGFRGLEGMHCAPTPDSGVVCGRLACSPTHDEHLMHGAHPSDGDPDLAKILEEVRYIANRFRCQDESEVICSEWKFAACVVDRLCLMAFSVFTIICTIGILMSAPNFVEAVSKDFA

[5] = Antagonist activity against alpha6beta2* nAChR in Sprague-Dawley rat […] assessed as inhibition of nicotine-induced [3H]-dopamine release after 5 mins by microbeta counting
[6] = molecular target: Neuronal acetylcholine receptor; alpha4/beta2 (Rattus norvegicus, UniProt P09483+P12390); assay: Agonist activity at alpha4beta2 nAChR in Sprague-Dawley rat striatal slices assessed as increase in [3H]-Dopamine release after 5 mins by microbeta counting; format: protein-complex assay
Neuronal acetylcholine receptor; alpha4/beta2, sequence (P09483 whole entry): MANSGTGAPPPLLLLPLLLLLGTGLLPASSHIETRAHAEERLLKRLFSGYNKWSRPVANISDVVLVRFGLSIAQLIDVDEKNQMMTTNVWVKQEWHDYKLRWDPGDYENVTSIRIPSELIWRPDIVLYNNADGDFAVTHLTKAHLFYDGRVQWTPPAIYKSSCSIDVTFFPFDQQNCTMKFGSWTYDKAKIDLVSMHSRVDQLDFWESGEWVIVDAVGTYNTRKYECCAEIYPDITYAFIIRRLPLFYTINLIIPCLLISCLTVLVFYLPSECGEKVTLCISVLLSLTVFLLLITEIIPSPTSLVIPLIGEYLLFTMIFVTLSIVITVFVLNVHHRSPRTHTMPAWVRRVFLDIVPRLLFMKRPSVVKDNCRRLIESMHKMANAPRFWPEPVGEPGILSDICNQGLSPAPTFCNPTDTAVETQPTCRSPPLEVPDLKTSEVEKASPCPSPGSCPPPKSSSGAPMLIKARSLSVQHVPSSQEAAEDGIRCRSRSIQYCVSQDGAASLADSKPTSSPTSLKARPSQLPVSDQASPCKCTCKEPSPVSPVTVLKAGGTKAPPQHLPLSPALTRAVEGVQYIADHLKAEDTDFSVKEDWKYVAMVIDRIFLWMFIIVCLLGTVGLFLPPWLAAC
Neuronal acetylcholine receptor; alpha4/beta2, sequence (P12390 whole entry): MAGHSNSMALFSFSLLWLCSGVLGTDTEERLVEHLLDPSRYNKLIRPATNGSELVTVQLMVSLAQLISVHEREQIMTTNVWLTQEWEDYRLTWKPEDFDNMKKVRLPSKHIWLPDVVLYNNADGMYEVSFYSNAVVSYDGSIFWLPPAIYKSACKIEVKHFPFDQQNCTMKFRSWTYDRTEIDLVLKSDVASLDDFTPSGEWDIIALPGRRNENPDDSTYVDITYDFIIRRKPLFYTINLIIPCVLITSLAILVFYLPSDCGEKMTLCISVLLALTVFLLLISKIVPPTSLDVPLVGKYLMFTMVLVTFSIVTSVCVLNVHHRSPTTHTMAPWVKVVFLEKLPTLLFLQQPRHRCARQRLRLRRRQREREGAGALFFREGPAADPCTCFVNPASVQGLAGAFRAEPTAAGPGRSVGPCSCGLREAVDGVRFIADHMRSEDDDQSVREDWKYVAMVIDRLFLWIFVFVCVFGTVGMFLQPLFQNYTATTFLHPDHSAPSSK

[7] = molecular target: Neuronal acetylcholine receptor; alpha3/beta4 (Homo sapiens, UniProt P30926+P32297); assay: Displacement of [3H]-Epibatidine from human aplha3beta4 nAChR expressed in HEK293 cells pre-incubated for 5 mins followed by overnight incubation by radioligand liquid scintillation counter analysis; format: cell-based
Neuronal acetylcholine receptor; alpha3/beta4, sequence (P30926 whole entry): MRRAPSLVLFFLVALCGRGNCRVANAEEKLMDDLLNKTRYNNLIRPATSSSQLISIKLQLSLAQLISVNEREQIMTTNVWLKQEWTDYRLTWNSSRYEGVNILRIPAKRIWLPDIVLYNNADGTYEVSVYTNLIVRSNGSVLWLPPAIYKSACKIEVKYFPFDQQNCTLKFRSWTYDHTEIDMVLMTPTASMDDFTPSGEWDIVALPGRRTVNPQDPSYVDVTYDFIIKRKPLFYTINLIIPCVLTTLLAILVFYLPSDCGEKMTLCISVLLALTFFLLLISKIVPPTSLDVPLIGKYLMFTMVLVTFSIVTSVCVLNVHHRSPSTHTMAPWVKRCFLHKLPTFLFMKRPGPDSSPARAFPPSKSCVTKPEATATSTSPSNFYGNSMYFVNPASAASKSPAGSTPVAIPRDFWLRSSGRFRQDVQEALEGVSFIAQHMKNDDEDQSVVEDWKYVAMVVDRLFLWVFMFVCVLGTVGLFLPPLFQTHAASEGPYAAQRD
Neuronal acetylcholine receptor; alpha3/beta4, sequence (P32297 whole entry): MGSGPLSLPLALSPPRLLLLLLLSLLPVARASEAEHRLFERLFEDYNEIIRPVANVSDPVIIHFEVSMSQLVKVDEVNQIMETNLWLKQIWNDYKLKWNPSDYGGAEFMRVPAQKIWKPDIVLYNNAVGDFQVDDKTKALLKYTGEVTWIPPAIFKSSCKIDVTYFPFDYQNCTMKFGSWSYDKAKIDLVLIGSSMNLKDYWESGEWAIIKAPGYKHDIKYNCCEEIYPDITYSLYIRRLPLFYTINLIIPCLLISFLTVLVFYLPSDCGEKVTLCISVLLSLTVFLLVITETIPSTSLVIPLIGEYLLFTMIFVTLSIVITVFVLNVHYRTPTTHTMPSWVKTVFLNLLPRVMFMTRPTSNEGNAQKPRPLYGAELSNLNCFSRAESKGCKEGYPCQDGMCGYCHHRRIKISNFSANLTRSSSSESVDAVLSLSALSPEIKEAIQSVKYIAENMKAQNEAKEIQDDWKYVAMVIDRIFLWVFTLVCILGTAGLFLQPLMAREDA

[8] = Displacement of [3H]-Epibatidine from aplha6beta2* nAChR in Sprague-Dawley rat cortical membranes pre-incubated for 5 mins followed by overnight incubation by radioligand liquid scintillation counter analysis
[9] = molecular target: Neuronal acetylcholine receptor; alpha4/beta2 (Rattus norvegicus) (UniProt P09483+P12390); assay: Agonist activity at alpha4beta2 nAChR in Sprague-Dawley rat striatal slices assessed as increase in [3H]-dopamine release after 5 mins by microbeta counting relative to nicotine; format: protein-complex assay
Rattus norvegicus [10] = species on record: Rattus norvegicus; assay: Agonist activity at aplha6beta2* nAChR in Sprague-Dawley rat striatal slices assessed as stinulation of [3H]-dopamine release in presence of 100 nM alpha-conotoxin MII after 5 mins by microbeta counting
HEK293 = assay: Selectivity ratio of Ki for aplha6beta2* nAChR in Sprague-Dawley rat cortical membranes to Ki for human aplha3beta4 nAChR expressed in HEK293 cells; format: cell-based

SMILES	Ki [2] [nM]	Ratio Ki (Rattus norvegicus [3])	Ki [4] [nM]	further results
Clc1ccc([C@@H]2C[C@H]3CC[C@@H]2N3)cn1 [(+)-EPIBATIDINE]				Ki [1]: 0.043 nM
Brc1cncc(N2CC3CC(C2)N3)c1	0.00572	30800	176	
Clc1ccc(-c2cncc(N3CC4CC(C3)N4)c2)cc1Cl	0.0908	397000	36000	
Fc1ccc(-c2cncc(N3CC4CC(C3)N4)c2)cc1	0.0248	4.44e+06	110000	IC50 [5]: 0.7 nM; EC50 [6]: Not Active; Ki [7]: 1.6 nM; Ki [8]: 0.032 nM
Cc1ccc(-c2cncc(N3CC4CC(C3)N4)c2)cc1	0.0143	6.69e+06	96000	
Clc1ccc(-c2cncc(N3CC4CC(C3)N4)c2)cc1	0.0328	1.46e+06	48000	
Clc1ccc(Cl)c(-c2cncc(N3CC4CC(C3)N4)c2)c1	0.0667	90000	6000	
Clc1ccc(-c2cncc(N3CC4CC(C3)N4)c2)c(Cl)c1	0.0821		13000	
Clc1ccc(N2CC3CC(C2)N3)cn1				EC50 ([6]; read-out: EC50): 1.16 nM; Efficacy [9]: 120%; Ki [7]: 0.2 nM; Activity (Rattus norvegicus [10]): inactive; Ki [8]: 0.0048 nM
Clc1cncc(N2CC3CC(C2)N3)c1	0.00632	11600	73	EC50 ([6]; read-out: EC50): 1.4 nM; Efficacy [9]: 111%; Ki [7]: 2.6 nM; Ratio Ki (HEK293): 411; Activity (Rattus norvegicus [10]): inactive; Ki [8]: 0.0112 nM
COc1ccc(-c2cncc(N3CC4CC(C3)N4)c2)cc1	0.0121	537000	6500	
O=[N+]([O-])c1ccc(-c2cncc(N3CC4CC(C3)N4)c2)cc1	0.0105	478000	5000	
Brc1ccc(-c2cncc(N3CC4CC(C3)N4)c2)cc1	0.151	226000	34000	
c1ccc(-c2cncc(N3CC4CC(C3)N4)c2)cc1	0.0112	1.52e+06	17000	IC50 [5]: 5.87 nM; EC50 [6]: Not Active; Ki [7]: 6.1 nM; Ratio Ki (HEK293): 521; Ki [8]: 0.0112 nM
